ChEMBL document CHEMBL4706515, “Discovery of new [1,2,4] Triazolo[1,5-a]Pyrimidine derivatives that Kill gastric cancer cells via the mitochondria pathway” (Eur J Med Chem, 2020)
The source made the active and inactive calls. No cut-off for these calls is given here.

What was measured:
SGC-7901 [1] = test: Induction of apoptosis in human SGC-7901 cells assessed as necrotic cells at 5 uM measure after 24 hrs by Annexin-PI staining based Flowcytometry method (reference value: 1.16%); assay type: functional
MGC-803 [2] = test: Induction of apoptosis in human MGC-803 cells assessed as necrotic cells at 5 uM measure after 24 hrs by Annexin-PI staining based Flowcytometry method (reference value: 3.13%); assay type: functional
MGC-803 [3] = test: Induction of apoptosis in human MGC-803 assessed by cleaved PARP levels incubated for 1 hr with Z-VAD-FMK followed by compound addition measured by western blot assay; assay type: functional, cell-based
MGC-803 [4] = test: Induction of apoptosis in human MGC-803 cells assessed as viable cells at 0.625 uM measure after 24 hrs by Annexin-PI staining based Flowcytometry method (reference value: 80%); assay type: functional; details: read-out: Activity
MGC-803 [5] = test: Induction of apoptosis in human MGC-803 cells assessed as early apoptotic cells at 5 uM measure after 24 hrs by Annexin-PI staining based Flowcytometry method (reference value: 9.8%); assay type: functional
MGC-803 [6] = test: Cytotoxicity against human MGC-803 cells assessed as inhibition of cell viability incubated for 1 hr with Z-VAD-FMK followed by addition of compound; assay type: functional, cell-based
MGC-803 [7] = test: Induction of mitochondrial membrane potential loss in human MGC-803 cells at 5 uM measured after 24 hrs by JC-1 staining based flow cytometry method (reference value: 0.344%); details: Mitochondria
SGC-7901 [8] = test: Induction of apoptosis in human SGC-7901 cells assessed as necrotic cells at 2.5 uM measure after 24 hrs by Annexin-PI staining based Flowcytometry method (reference value: 1.16%); assay type: functional
MGC-803 [9] = test: Cell cycle arrest in human MGC-803 cells assessed as accumulation of cells in G2/M phase at 10 uM measured after 24 hrs by PI staining based flow cytometry; assay type: functional
MGC-803 [10] = test: Induction of mitochondrial membrane potential loss in human MGC-803 cells at 2.5 uM measured after 24 hrs by JC-1 staining based flow cytometry method (reference value: 0.344%); details: Mitochondria

Cc1cc(Nc2ccc(C(=O)/C=C/c3cccc(Br)n3)cc2)n2nc(SCc3nc4ccccc4[nH]3)nc2n1
Activity (SGC-7901 [1]): 0.586% | Activity (MGC-803 [2]): 4.51% | Activity (MGC-803 [3]): inactive | viability at 0.625 µM (MGC-803 [4]): 91.6% | Activity (MGC-803 [5]): 6.25% | inhibition (MGC-803 [6]): inactive | Activity (MGC-803 [7]): 3.13% | Activity (SGC-7901 [8]): 1.15% | Activity (MGC-803 [9]): Active | Activity (MGC-803 [10]): 3.25%
